Test results from patent US10899738B2 (THE REGENTS OF THE UNIVERSITY OF MICHIGAN, priority 2016, dated 2021).
Read-outs that look alike come from different tables or passages of the source.

Columns and labels:
[1] = target: menin protein (Homo sapiens (Human), UniProt O00255); assay: biochemical; format: binding
Outline: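 Competitive fluorescence polarization assay using FAM-labelled MLL1 peptide probe FAM-MM2 (2 nM final) preincubated with menin (4 nM final) in PBS with 0.02% bovine γ-globulin, 4% DMSO and 0.01% Triton X-100. Compounds were added and incubated 30 min at room temperature. IC50 came from nonlinear regression of competition curves, with Ki also derived.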

[2] = Cell growth inhibition, CellTiter-Glo Luminescent Cell Viability Assay; format: cell-based
Outline: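 Cells seeded at 2,000/well with serially diluted compound and cultured 4 days at 37 °C, 5% CO2. Viability read by CellTiter-Glo luminescence; IC50 derived from dose-response.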

[3] = system: MOLM-13 cells; assay: Mechanism of action studies, gene expression measured with qPCR in MOLM-13 cells; format: cell-based
Protocol: (§1) MOLM-13 or MV4-11 cells were seeded in a 6-well plate at a density of 500,000 cells/well in 2 ml of culture medium and treated with either Cpd. No. 210 or Cpd. No. 366 at the concentrations as indicated. About 4 days after the treatments, cells were harvested and the expression of each gene was measured with qPCR.
as §1, with “MOLM-13” for “MOLM-13 or MV4-11”, “366” for “210”, “238” for “366”, “66 hours” for “4 days”, “treatment,” for “treatments,”
as §1, with “500,000-800,000” for “500,000”, “366” for “210”, “215” for “366”, “40 hours” for “4 days”, “treatment,” for “treatments,”

[4] = system: MV4-11 cells; assay: Mechanism of action studies, gene expression measured with qPCR in MV4-11 cells; format: cell-based
Protocol: as §1
as §1, with “500,000-800,000” for “500,000”, “366” for “210”, “215” for “366”, “40 hours” for “4 days”, “treatment,” for “treatments,”

[5] = MOLM-13, 96 h, read-out: Cell Growth Inhibition IC50 (μM) MOLM13
[6] = MV4-11, 96 h, read-out: Cell Growth Inhibition IC50 (μM) MV4, 11
[7] = 4 days of treatment, dose dependent
[8] = FP competitive binding, menin protein 4 nM, FAM-MM2 probe 2 nM, read-out: Menin Binding Affinity IC50
[9] = 66 hours of treatment, dose dependent
[10] = MOLM-13, 96 h, MOLM13 cells, 4 days, CellTiter-Glo, read-out: Cell Growth Inhibition IC50 (μM) MOLM13
[11] = MV4-11, 96 h, MV4, 11 cells, 4 days, CellTiter-Glo, read-out: Cell Growth Inhibition IC50 (μM) MV4, 11

Chain of menin protein (O00255 whole entry): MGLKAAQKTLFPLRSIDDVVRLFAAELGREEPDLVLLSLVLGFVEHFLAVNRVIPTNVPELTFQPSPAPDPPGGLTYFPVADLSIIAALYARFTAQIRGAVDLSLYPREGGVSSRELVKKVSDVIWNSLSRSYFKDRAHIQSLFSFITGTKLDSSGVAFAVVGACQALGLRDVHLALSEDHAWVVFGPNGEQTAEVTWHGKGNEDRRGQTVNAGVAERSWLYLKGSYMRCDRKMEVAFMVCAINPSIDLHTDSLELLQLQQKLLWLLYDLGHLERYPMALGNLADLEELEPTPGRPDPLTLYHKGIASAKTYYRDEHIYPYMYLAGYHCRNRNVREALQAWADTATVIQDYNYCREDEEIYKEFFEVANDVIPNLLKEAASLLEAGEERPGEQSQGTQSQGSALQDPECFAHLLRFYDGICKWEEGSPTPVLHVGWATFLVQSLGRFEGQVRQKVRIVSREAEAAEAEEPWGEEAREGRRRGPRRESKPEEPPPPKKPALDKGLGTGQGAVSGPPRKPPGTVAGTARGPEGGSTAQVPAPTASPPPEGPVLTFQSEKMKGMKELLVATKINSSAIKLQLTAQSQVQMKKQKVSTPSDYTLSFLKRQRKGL

SMILES	IC50 [1, 8] [µM]	IC50 [2, 10] [µM]	IC50 [2, 11] [µM]	further results
CNC(=O)O[C@H]1CCC[C@@H]1C1(C2CCN(CC3CN(c4ccc(S(=O)(=O)c5ccncc5)cc4)C3)CC2)CN(C)Cc2ccccc21 (mixture of isomers) [Cpd. No. 210, rac-(1S,2R)-2-(2-methyl-4-(1-((1-(4-(pyridin-4-ylsulfonyl)phenyl)azetidin-3-yl)methyl)piperidin-4-yl)-1,2,3,4-tetrahydroisoquinolin-4-yl)cyclopentyl methylcarbamate]				IC50 ([1]; Menin Binding Affinity IC50 (μM)): 0.004 µM; IC50 [2, 5]: 0.135 ± 0.093 µM; IC50 [2, 6]: 0.023 ± 0.016 µM; MEIS1 gene expression ([3]; 4 days of treatment): reduced; HOX7 gene expression [3, 7]: reduced; HOX10 gene expression [3, 7]: reduced; HOX7 gene expression ([4]; 4 days of treatment): not as robust as those of HOX10; MEIS1 gene expression ([4]; 4 days of treatment): reduced; MYB gene expression ([4]; 4 days of treatment): no effect; HOX10 gene expression [4, 7]: reduced
CNC(=O)O[C@H]1CCC[C@@H]1C(C#N)(c1ccccc1)C1CCN(CC2CN(c3ccc(S(=O)(=O)c4ccncc4)cc3)C2)CC1 (mixture of isomers) [Cpd. No. 215, rac-(1S,2R)-2-(cyano(phenyl)(1-((1-(4-(pyridin-4-ylsulfonyl)phenyl)azetidin-3-yl)methyl)piperidin-4-yl)methyl)cyclopentyl methylcarbamate]	0.006			IC50 ([2]; MOLM-13, 96 h, read-out: Cell Growth Inhibition IC50 (μM) MOLM13, MOLM13 cells, 4 days, CellTiter-Glo): 0.415 ± 0.208 µM; IC50 ([2]; MV4-11, 96 h, read-out: Cell Growth Inhibition IC50 (μM) MV4, 11, MV4, 11 cells, 4 days, CellTiter-Glo): 0.173 ± 0.048 µM; HOX7 gene expression ([4]; 40 hours of treatment): Neither Cpd. No. 366 nor Cpd. No. 215 showed an effect
CNC(=O)O[C@H]1CCC[C@@H]1C(Cn1ccnc1)(c1ccccc1)C1CCN(CC2CN(c3ccc(C#N)cc3)C2)CC1 (mixture of isomers) [Cpd. No. 366, rac-(1S,2R)-2-(1-(1-((1-(4-cyanophenyl)azetidin-3-yl)methyl)piperidin-4-yl)-2-(1H-imidazol-1-yl)-1-phenylethyl)cyclopentyl methylcarbamate]	0.009			IC50 [2, 5]: 0.14 µM; IC50 [2, 6]: 0.035 µM; MEIS1 gene expression ([3]; 40 hours of treatment): reduced; all the tested HOX genes (HOX7, HOX9, HOX10, HOX11) expression ([3]; 40 hours of treatment, dose dependent): reduces; ITGAM gene expression ([3]; 66 hours of treatment): not effect; MEIS1 gene expression ([3]; 66 hours of treatment): reduced; HOX7 gene expression [3, 9]: reduced; HOX10 gene expression [3, 9]: reduced; MEIS1 gene expression ([3]; 4 days of treatment): reduced; HOX7 gene expression [3, 7]: reduced; HOX10 gene expression [3, 7]: reduced; MYB gene expression ([3]; 4 days of treatment, high concentration): may reduce; HOX7 gene expression ([4]; 40 hours of treatment): Neither Cpd. No. 366 nor Cpd. No. 215 showed an effect; HOX10 gene expression ([4]; 40 hours of treatment): significantly reduced; HOX11 gene expression ([4]; 40 hours of treatment): significantly reduced; MEIS1 gene expression ([4]; 40 hours of treatment): reduced; HOX7 gene expression ([4]; 4 days of treatment): not as robust as those of HOX10; MEIS1 gene expression ([4]; 4 days of treatment): reduced; MYB gene expression ([4]; 4 days of treatment): no effect; HOX10 gene expression [4, 7]: reduced
CNC(=O)O[C@H]1CCC[C@@H]1C(Cn1ccnc1)(c1ccccc1)C1CCN(CC2CN(c3ccc(S(=O)(=O)c4cnn(C)c4)cc3)C2)CC1 (mixture of isomers) [compound 238, rac-(1S,2R)-2-(2-(1H-imidazol-1-yl)-1-(1-((1-(4-((1-methyl-1H-pyrazol-4-yl)sulfonyl)phenyl)azetidin-3-yl)methyl)piperidin-4-yl)-1-phenylethyl)cyclopentyl methylcarbamate]	0.008			IC50 [2, 5]: 0.16 µM; IC50 [2, 6]: 0.027 µM; ITGAM gene expression ([3]; 66 hours of treatment): not effect; MEIS1 gene expression ([3]; 66 hours of treatment): reduced; HOX7 gene expression [3, 9]: reduced; HOX10 gene expression [3, 9]: reduced
CCN1Cc2ccccc2C(C2CCCC2)(C2CCN(CC3CN(c4ccc(S(=O)(=O)C(F)(F)F)cc4)C3)CC2)C1 (stereo not drawn) [compound 145, 4-cyclopentyl-2-ethyl-4-(1-((1-(4-((trifluoromethyl)sulfonyl)phenyl)azetidin-3-yl)methyl)piperidin-4-yl)-1,2,3,4-tetrahydroisoquinoline]	0.015	3.3 ± 0.5	1.6 ± 0.8	
O=S(=O)(c1ccc(N2CC(CN3CCC(C4(C5CCCC5)NCCc5ccccc54)CC3)C2)cc1)C1CCCC1 (stereo not drawn) [compound 146, 1-cyclopentyl-1-(1-((1-(4-(cyclopentylsulfonyl)phenyl)azetidin-3-yl)methyl)piperidin-4-yl)-1,2,3,4-tetrahydroisoquinoline]	0.013	1.9 ± 1.2	0.785 ± 0.247	
CCN1Cc2ccccc2C(C2CCCC2)(C2CCN(CC3CN(c4ccc(S(=O)(=O)c5ccccc5)cc4)C3)CC2)C1 (stereo not drawn) [compound 147, 4-cyclopentyl-2-ethyl-4-(1-((1-(4-(phenylsulfonyl)phenyl)azetidin-3-yl)methyl)piperidin-4-yl)-1,2,3,4-tetrahydroisoquinoline]	0.009	1.6 ± 0.8	0.956 ± 0.727	
O=S(=O)(c1ccccc1)c1ccc(N2CC(CN3CCC(C4(C5CCCC5)NCCc5ccccc54)CC3)C2)cc1 (stereo not drawn) [compound 149, 1-cyclopentyl-1-(1-((1-(4-(phenylsulfonyl)phenyl)azetidin-3-yl)methyl)piperidin-4-yl)-1,2,3,4-tetrahydroisoquinoline]	0.012	0.331	0.493	
O=S(=O)(c1ccncc1)c1ccc(N2CC(CN3CCC(C4(C5CCCC5)NCCc5ccccc54)CC3)C2)cc1 (stereo not drawn) [compound 151, 1-cyclopentyl-1-(1-((1-(4-(pyridin-4-ylsulfonyl)phenyl)azetidin-3-yl)methyl)piperidin-4-yl)-1,2,3,4-tetrahydroisoquinoline]	0.015	0.627	1.3	
CCN1Cc2ccccc2C(C2CCCC2)(C2CCN(CC3CN(c4ccc(S(=O)(=O)c5cccnc5)cc4)C3)CC2)C1 (stereo not drawn) [compound 152, 4-cyclopentyl-2-ethyl-4-(1-((1-(4-(pyridin-3-ylsulfonyl)phenyl)azetidin-3-yl)methyl)piperidin-4-yl)-1,2,3,4-tetrahydroisoquinoline]	0.009	0.49	0.46	
CCN1Cc2ccccc2C(C2CCCC2)(C2CCN(CC3CN(c4ccc(S(=O)(=O)c5ccncc5C)cc4)C3)CC2)C1 (stereo not drawn) [compound 153, 4-cyclopentyl-2-ethyl-4-(1-((1-(4-((3-methylpyridin-4-yl)sulfonyl)phenyl)azetidin-3-yl)methyl)piperidin-4-yl)-1,2,3,4-tetrahydroisoquinoline]	0.007	0.77	0.79	
CCc1cnccc1S(=O)(=O)c1ccc(N2CC(CN3CCC(C4(C5CCCC5)CN(CC)Cc5ccccc54)CC3)C2)cc1 (stereo not drawn) [compound 156, 4-cyclopentyl-2-ethyl-4-(1-((1-(4-((3-ethylpyridin-4-yl)sulfonyl)phenyl)azetidin-3-yl)methyl)piperidin-4-yl)-1,2,3,4-tetrahydroisoquinoline]	0.008	1.8	0.654	
CCN1Cc2ccccc2C(C2CCCC2)(C2CCN(CC3CN(c4ccc(S(=O)(=O)c5ccnc(C(F)(F)F)c5)cc4)C3)CC2)C1 (stereo not drawn) [compound 157, 4-cyclopentyl-2-ethyl-4-(1-((1-(4-((2-(trifluoromethyl)pyridin-4-yl)sulfonyl)phenyl)azetidin-3-yl)methyl)piperidin-4-yl)-1,2,3,4-tetrahydroisoquinoline]	0.016	4.4	1.8	
CCN1Cc2ccccc2C(C2CCCC2)(C2CCN(CC3CN(c4ccc(S(=O)(=O)c5ccnc6cnccc56)cc4)C3)CC2)C1 (stereo not drawn) [compound 158, 4-((4-(3-((4-(4-cyclopentyl-2-ethyl-1,2,3,4-tetrahydroisoquinolin-4-yl)piperidin-1-yl)methyl)azetidin-1-yl)phenyl)sulfonyl)-1,7-naphthyridine]	0.008	1.56	0.8	
CCN1Cc2ccccc2C(C2CCCC2)(C2CCN(CC3CN(c4ccc(S(=O)(=O)c5ccc(C(=O)O)cc5)cc4)C3)CC2)C1 (stereo not drawn) [compound 164, 4-((4-(3-((4-(4-cyclopentyl-2-ethyl-1,2,3,4-tetrahydroisoquinolin-4-yl)piperidin-1-yl)methyl)azetidin-1-yl)phenyl)sulfonyl)benzoic acid]	0.008	0.72	0.27	
O=S(=O)(c1ccccc1)c1ccc(N2CC(CN3CCC(C(CN4CCCC4)(c4ccccc4)[C@H]4C=CCC4)CC3)C2)cc1 (stereo partly drawn) [compound 356, 4-(1-((R)-cyclopent-2-en-1-yl)-1-phenyl-2-(pyrrolidin-1-yl)ethyl)-1-((1-(4-(phenylsulfonyl)phenyl)azetidin-3-yl)methyl)piperidine]	0.022	0.69	0.71	
